Data: the supplement of paper PMC10331698
± gives the standard deviation of the averaged measurements.

Legend:
Assay in all cases: level (log10 ratio to DMSO vehicle control); higher = higher biomarker level / cell amount than vehicle control
Conditions in all cases: in DMSO
[1] = compound: O=C(O)C(F)(F)C(F)(F)C(F)(F)C(F)(F)F [Perfluoropentanoic acid]
Protocol: (§1)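 BioMAP Diversity Plus panel of 12 human primary cell co-culture systems (3C, 4H, LPS, SAg, BT, BF4T, BE3C, CASM3C, HDF3CGF, KF3CT, MyoF, Mphg). Compounds were added 1 h before stimulation and left for 24 h (MyoF 48 h; BT 72 h for soluble read-outs or 6 d for IgG). Biomarkers were read by ELISA, cytotoxicity by SRB, PBMC viability and proliferation by Alamar Blue. Each well value was divided by the mean of 8 DMSO control wells on the same plate and log10 transformed; duplicate blinded samples were tested at 4 concentrations.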

[2] = compound: C=C(C)C(=O)OCCC(F)(F)C(F)(F)C(F)(F)C(F)(F)C(F)(C(F)(F)F)C(F)(F)F [(Perfluoro-5-methylhexyl)ethyl 2-methylprop-2-enoate]
Protocol: as §1

[3] = compound: O=C(O)C(F)(F)C(F)(F)C(F)F [4H-Perfluorobutanoic acid]
Protocol: as §1

[4] = compound: O=C(O)C(F)(F)C(F)(F)C(F)(F)C(F)(F)C(F)(F)C(F)(F)C(F)(F)C(F)F [9-H-Perfluorononanoic acid]
Protocol: as §1

[5] = compound: NC(=O)C(F)(F)C(F)(F)F [Pentafluoropropionamide]
Protocol: as §1

[6] = compound: O=C(O)C(F)(F)C(F)(F)C(F)(F)C(F)(F)C(F)(F)C(F)(F)F [Perfluoroheptanoic acid]
Protocol: as §1

[7] = compound: NC(=O)C(F)(F)C(F)(F)C(F)(F)F [Heptafluorobutyramide]
Protocol: as §1

Row | Test System | level (log10) ([1]; 6700 nM) | level (log10) ([1]; 20000 nM) | level (log10) ([1]; 60000 nM) | level (log10) ([2]; 6700 nM) | level (log10) ([2]; 20000 nM) | level (log10) ([3]; 6700 nM) | level (log10) ([3]; 20000 nM) | level (log10) ([3]; 60000 nM) | level (log10) ([4]; 6700 nM) | level (log10) ([4]; 20000 nM) | level (log10) ([4]; 60000 nM) | level (log10) ([5]; 6700 nM) | level (log10) ([5]; 20000 nM) | level (log10) ([5]; 60000 nM) | level (log10) ([6]; 6700 nM) | level (log10) ([6]; 20000 nM) | level (log10) ([6]; 60000 nM) | level (log10) ([7]; 6700 nM) | level (log10) ([7]; 20000 nM) | level (log10) ([7]; 60000 nM)
1 | 3C:CCL2/MCP-1 | -0.0105 ± 0.00071 | 0.0005 ± 0.0021 | 0.0215 ± 0.019 | -0.0145 ± 0.025 | 0.006 ± 0.044 | -0.02 ± 0.061 | -0.006 ± 0.05 | 0.0215 ± 0.03 | -0.001 ± 0.021 | 0.0125 ± 0.0092 | 0.0415 ± 0.005 | 0.006 ± 0.018 | -0.007 ± 0.0099 | 0.0275 ± 0.00071 | 0.0015 ± 0.015 | -0.009 ± 0.013 | 0.032 ± 0.045 | -0.011 ± 0.0057 | -0.0125 ± 0.0064 | 0.0065 ± 0.03
2 | 3C:CD54/ICAM-1 | -0.0145 ± 0.03 | -0.028 ± 0.021 | -0.0075 ± 0.022 | -0.009 ± 0.0014 | -0.01 ± 0.0071 | -0.016 ± 0.0014 | -0.0105 ± 0.018 | 0.0025 ± 0.0092 | -0.006 | -0.0055 ± 0.0092 | 0.008 ± 0.013 | 0.0035 ± 0.0035 | -0.0105 ± 0.016 | 0.008 ± 0.014 | 0.0025 ± 0.0035 | -0.0095 ± 0.0092 | 0.008 ± 0.023 | -0.023 ± 0.02 | -0.008 ± 0.0014 | -0.019 ± 0.016
3 | 3C:CD62E/E-Selectin | -0.0085 ± 0.0035 | 0.0005 ± 0.0064 | 0.0175 ± 0.026 | -0.0095 ± 0.018 | -0.0175 ± 0.0021 | -0.024 | -0.0235 ± 0.0092 | 0.017 ± 0.03 | -0.009 ± 0.014 | -0.0145 ± 0.0092 | 0.006 ± 0.025 | -0.0075 ± 0.0078 | -0.005 ± 0.011 | 0.005 ± 0.018 | 0.007 ± 0.0042 | 0.0125 ± 0.0078 | 0.0185 ± 0.00071 | -0.0085 ± 0.03 | -0.017 ± 0.038 | -0.0385 ± 0.0064
4 | 3C:CD106/VCAM-1 | 0.002 ± 0.023 | -0.0055 ± 0.021 | 0.0235 ± 0.015 | -0.032 ± 0.0099 | -0.012 ± 0.0085 | -0.0075 ± 0.04 | -0.0265 ± 0.005 | 0.006 ± 0.0028 | -0.025 ± 0.016 | -0.018 ± 0.035 | -0.0185 ± 0.04 | -0.0215 ± 0.013 | -0.009 ± 0.027 | -0.0105 ± 0.005 | 0.0165 ± 0.018 | -0.02 ± 0.0042 | -0.003 ± 0.014 | -0.0085 ± 0.0021 | -0.01 ± 0.014 | -0.025
5 | 3C:CD141/Thrombomodulin | 0.024 ± 0.021 | 0.0345 ± 0.005 | 0.0685 ± 0.042 | 0.041 ± 0.033 | 0.005 ± 0.033 | -0.0285 ± 0.0078 | -0.008 ± 0.013 | 0.0035 ± 0.0035 | 0.012 ± 0.0085 | -0.003 ± 0.0085 | -0.0365 ± 0.0078 | -0.0355 ± 0.032 | -0.0165 ± 0.005 | -0.027 ± 0.018 | 0.0185 ± 0.0035 | 0.0035 ± 0.00071 | 0.0205 ± 0.0021 | -0.004 ± 0.083 | -0.022 ± 0.099 | -0.047 ± 0.11
6 | 3C:CD142/Tissue Factor | 0.0225 ± 0.011 | 0.018 ± 0.027 | 0.0395 ± 0.056 | 0.0205 ± 0.015 | -0.0295 ± 0.046 | -0.004 ± 0.0014 | -0.021 ± 0.0099 | 0.0105 ± 0.005 | 0.035 ± 0.0028 | 0.027 ± 0.0042 | 0.059 ± 0.023 | -0.0305 ± 0.032 | -0.0575 ± 0.019 | -0.0205 ± 0.015 | -0.0065 ± 0.037 | -0.004 ± 0.027 | 0.0285 ± 0.039 | -0.002 ± 0.064 | -0.007 ± 0.082 | -0.0235 ± 0.1
